Holding throughout (format): cell-based
Assay [1] concerns the target T1, human MRGPRX2 (Homo sapiens, UniProt Q96LB1).
T1 construct: expressed in transfected cells; host or cells: FlpIn TRex HEK293 (TRex-MRGPRX2-HEK), doxycycline-induced
T1 sequence (Q96LB1 1-330): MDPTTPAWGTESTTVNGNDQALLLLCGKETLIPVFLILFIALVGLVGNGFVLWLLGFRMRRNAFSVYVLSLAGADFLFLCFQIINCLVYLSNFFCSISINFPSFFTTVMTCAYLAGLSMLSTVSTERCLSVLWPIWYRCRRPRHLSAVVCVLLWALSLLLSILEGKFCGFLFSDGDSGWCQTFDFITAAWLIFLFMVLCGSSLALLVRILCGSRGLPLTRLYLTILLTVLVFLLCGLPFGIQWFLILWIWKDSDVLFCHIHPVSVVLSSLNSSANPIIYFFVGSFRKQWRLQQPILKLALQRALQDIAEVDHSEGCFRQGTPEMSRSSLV
Briefly: MRGPRX2 Activity Assay (IP-1 HTRF, antagonist mode). The conditions noted are these: FlpIn TRex-MRGPRX2-HEK293 cells; versus 1 μM Cortistatin-14 agonist; 30 minutes preincubation. The procedure, abridged:
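Doxycycline-induced (100 ng/mL, 18-24 h) TRex HEK293 cells stably expressing human MRGPRX2, in HBSS/20 mM HEPES/0.1% BSA/10 mM LiCl. Compounds (top final 30 uM, 1% DMSO) preincubated 30 min, then agonist stimulation 1 h at 37° C without wash. IP-1 accumulation read by HTRF; IC50 from 4-parameter fit.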

Assay [2] relates to LAD-2 cells. Briefly: LAD2 Degranulation Assay (Protocol 1), β-hexosaminidase release. The conditions noted are these: Homo sapiens, 1 μM Cortistatin-14, 30 minute preincubation, top concentration 3 μM. As to the method:
(§1) LAD-2 cells were maintained at 37° C. with 5% CO2 and grown in complete StemPro-34 media supplemented with 1% L-Glutamate, 1% penicillin/streptomycin, and 250 ng/mL human SCF.
On the day of experiment, cells were collected by centrifugation and seeded in 384-well assay plates, at 4,000 cells per well in 10 μl freshly made assay buffer (10 mM HEPES, 130 mM NaCl, 5 mM KCl, 1.8 mM CaCl2), 1.0 mM MgCl2, 5.6 mM glucose, 0.1% BSA, pH=7.40). For dose-response assays, compounds solubilized in 100% DMSO at 30 mM were serially diluted (1:3) first in 100% DMSO, and 2 intermediate dilutions with assay buffer were used to establish a final top concentration of 3 μM (in assay plate). Final DMSO concentration was kept constant at 0.1% across plates for all assays. Cortistatin-14 at 30 mM stock concentration was solubilized in HBSS+0.1% BSA, stored at −20° C. in 5 μl aliquots and discarded after one freeze-thaw cycle. Final concentration of agonist used in both dose-response and single point assays was 1 μM, prepared in assay buffer.
(§2) Antagonist equilibrium was established with 30 minute preincubation, followed by no wash, direct addition, and stimulation of agonist for 30 minutes at 37° C. For detection of β-hexosaminidase activity, assay plates were centrifuged and 5 μl of cell-free supernatant from each assay well was transferred to a black-walled black-bottomed 384-well plate. Substrate solution (1 mM 4-Methylumbelliferyl N-acetyl-β-D-glucosaminide in citrate buffer, pH=4.5, 15 μl) was added to each well and plates were incubated for 1 hour at 37° C. The plate was read on an EnVision XCite plate reader for umbelliferone fluorescence intensity (λex=355 nm, λem=460 nm). Background-subtracted data was analyzed using either GraphPad Prism or a custom Python script to calculate IC50 using either Log[Antagonist] vs. response (4 parameter) nonlinear regression (dose-response assays).

Assay [3] concerns LAD-2 cells. Briefly: LAD2 Degranulation Assay (Protocol 2), β-hexosaminidase release. The conditions noted are these: Homo sapiens, 0.5 μM Cortistatin-14, 2 h preincubation, cells without SCF 18-24 hours, top concentration 3 μM. Here is the method:
as §1
18-24 hours prior to experiment, LAD-2 cells were collected and transferred to growth media without SCF. On the day of experiment, cells were collected by centrifugation and seeded in 384-well assay plates, at 4,000 cells per well in 17 μl freshly made assay buffer (10 mM HEPES, 137 mM NaCl, 2.7 mM KCl, 1.8 mM CaCl2), 1.0 mM MgCl2, 5.6 mM glucose, 0.4 mM NaH2PO4, 0.04% BSA, pH=7.40). For dose-response assays, compounds solubilized in 100% DMSO at 30 mM were serially diluted (1:3) first in 100% DMSO, and 2 intermediate dilutions with assay buffer were used to establish a final top concentration of 3 μM (in assay plate). For single point assays, dilution of DMSO stocks to 250 nM (in assay plate) was performed in the same manner as described for dose-response assays. Final DMSO concentration was kept constant at 0.1% across plates for all assays. Cortistatin-14 at 30 mM stock concentration was solubilized in HBSS+0.1% BSA, stored at −20° C. in 5 μl aliquots and discarded after one freeze-thaw cycle. Final concentration of agonist used in both dose-response and single point assays was 0.5 μM, prepared in assay buffer.
as §2, with “with 2 h” for “with 30 minute”, “[…])” for “15 μl)”, “(dose-response assays) or % control β-hexosaminidase activity (single point” for “(dose-response”

Structures are written as SMILES. Some results are limits rather than exact numbers.

Consider `C[C@H](C(=O)Nc1coc(Cc2cc(F)cc(F)c2)n1)N1CCC(F)(F)[C@@H](c2cc[n+]([O-])cc2)C1` (single isomer, unassigned) [Compound 28], for which the IC50 was 2.1 nM in assay [1] and 19 nM in assay [2].
Turning to `C[C@H](C(=O)Nc1cn(Cc2cc(F)cc(F)c2)cn1)N1CCC(F)(F)[C@@H](c2ccc(=O)[nH]c2)C1` (single isomer, unassigned) [Compound 55], the IC50 was 4 nM in assay [1] and 22 nM in assay [2].
Taken in the same sequence, the figures for `C[C@@H](C(=O)Nc1noc(Cc2cc(F)cc(F)c2)n1)N1CCC(F)(F)[C@@H](c2cc[n+]([O-])cc2)C1` (single isomer, unassigned) [Compound 56] were 76 nM and 976 nM.
For `C[C@H](C(=O)Nc1cn(Cc2cc(F)cc(F)c2)cn1)N1CCC(F)(F)[C@@H](c2ccc(=O)n(C)c2)C1` (single isomer, unassigned) [Compound 68], in that order: 23 nM and 30 nM.
For `C[C@H](C(=O)Nc1cn(Cc2cc(F)cc(F)c2)cn1)N1CCC(F)(F)[C@@H](c2c[nH]c(=O)c(CO)c2)C1` (single isomer, unassigned) [Compound 72], in that order: 12 nM and 20 nM.
As to `C[C@H](C(=O)Nc1cn(Cc2cc(F)cc(F)c2)c(C(F)(F)F)n1)N1CCC(F)(F)[C@H](c2ccc(=O)[nH]c2)C1` (single isomer, unassigned) [Compound 77], the values for the 50% inhibitory concentration (IC50) in assay [1] and in assay [2] were 18 nM and 51 nM, respectively.
Take `C[C@@H](C(=O)Nc1cn(Cc2cc(F)cc(F)c2)c(Cl)n1)N1CCC(F)(F)[C@@H](c2cc[n+]([O-])cc2)C1` (single isomer, unassigned) [Compound 80]: the IC50 is 755 nM in assay [1] and over 3000 nM in assay [2].
In the case of `C[C@H](C(=O)Nc1cn(Cc2cc(F)cc(F)c2)c(C(F)F)n1)N1CCC(F)(F)[C@@H](c2cc[n+]([O-])cc2)C1` (single isomer, unassigned) [Compound 83], the IC50 in assay [3] amounted to 12 nM; in assay [1], 8 nM; in assay [2], 13 nM.
In the case of `C[C@H](C(=O)Nc1nc2ccccc2s1)N1CCC(F)(F)[C@@H](c2cc[n+]([O-])cc2)C1` (single isomer, unassigned) [Compound 85], the IC50 in assay [1] turned out to be 28 nM; in assay [2], 100 nM.
Taken in the same sequence, the figures for `O=C(Nc1cn(Cc2cc(F)cc(F)c2)cn1)[C@@H]1C(F)(F)C12CCC2` [Compound 29, (R)—N-(1-(3,5-difluorobenzyl)-1H-imidazol-4-yl)-2,2-difluorospiro[2.3]hexane-1-carboxamide] were 220 nM and 212 nM.
On to `C[C@@H](C(=O)Nc1cn(Cc2cc(F)c(F)c(F)c2)cn1)N1CCC(F)(F)[C@@H](c2cc[n+]([O-])cc2)C1` [Compound 34, 4-((S)-4,4-difluoro-1-((S)-1-oxo-1-((1-(3,4,5-trifluorobenzyl)-1H-imidazol-4-yl)amino)propan-2-yl)piperidin-3-yl)pyridine 1-oxide], for which the values for the IC50 in assay [1] and in assay [2] were 11 nM and 25 nM, respectively.
In the case of `C[C@@H](C(=O)Nc1cn(Cc2cc(F)ccc2Cl)cn1)N1CCC(F)(F)[C@@H](c2cc[n+]([O-])cc2)C1` [Compound 35, 4-((S)-1-((S)-1-((1-(2-chloro-5-fluorobenzyl)-1H-imidazol-4-yl)amino)-1-oxopropan-2-yl)-4,4-difluoropiperidin-3-yl)pyridine 1-oxide], the results for the IC50 in assay [1] and in assay [2] were 7.9 nM and 57 nM, respectively.
As to `C[C@@H](C(=O)Nc1cn(Cc2cc(F)cc(F)c2F)cn1)N1CCC(F)(F)[C@@H](c2cc[n+]([O-])cc2)C1` [Compound 39, 4-((S)-4,4-difluoro-1-((S)-1-oxo-1-((1-(2,3,5-trifluorobenzyl)-1H-imidazol-4-yl)amino)propan-2-yl)piperidin-3-yl)pyridine 1-oxide], the IC50 amounted to 4.1 nM in assay [1] and 3.3 nM in assay [2].
For `C[C@@H](C(=O)Nc1cn(Cc2cc(F)cc(C#N)c2)cn1)N1CCC(F)(F)[C@@H](c2cc[n+]([O-])cc2)C1` [Compound 53, 4-((S)-1-((S)-1-((1-(3-cyano-5-fluorobenzyl)-1H-imidazol-4-yl)amino)-1-oxopropan-2-yl)-4,4-difluoropiperidin-3-yl)pyridine 1-oxide], in that order: 783 nM and 1020 nM.

Usually IC50 stands for the concentration that gives 50% inhibition. A high value points to weaker potency.

These data come from patent US20250122171A1, “Substituted Amine Compounds, Compositions and Methods of Use” (Deep Apple Therapeutics, Inc., priority 2023, published 2025).
